In paper PMC3206494, “Discovery of potent, novel, non-toxic anti-malarial compounds via quantum modelling, virtual screening and in vitro experimental validation” (Malaria Journal, 2011):
Read-outs that look alike come from different tables or passages of the source.

How the values were obtained:
P. falciparum = assay: In vitro anti-malarial activity, [3H]-hypoxanthine incorporation assay; type: cell-based; conditions: Plasmodium falciparum
Description: The in vitro anti-malarial activity was measured using the [3H]-hypoxanthine incorporation assay with various strains of P. falciparum (Roche). Results were expressed as the concentration corresponding to 50% inhibition. The anti-malarial assays were performed at the Swiss Tropical Institute, Basel, Switzerland.

mammalian cytotoxicity = assay: Toxicity assay, colorimetric MTT assay (mammalian cytotoxicity); type: cell-based; conditions: data from two independent assays
Description: Toxicity was determined by using the colorimetric 3-(4,5-dimethylthiazol-2-yl)-2,5-diphenyltetrazoliumbromide (MTT) assay. The toxicity assays were performed at the Swiss Tropical Institute, Basel, Switzerland.

[1] = Solubility in DMSO (footnote to Table 2); type: physicochemical; parameters: key: *: Not fully soluble in DMSO; conditions: footnote mark on the anti-malarial activity value
Text: Table 2 Summary of anti-malarial activity and cytotoxicity | column: Average Anti-malarial Activity**(ng/ml)

[2] = P. falciparum, in vitro, data from two independent assays, read-out: Average Anti-malarial Activity (concentration corresponding to 50% inhibition)
[3] = P. falciparum, in vitro, read-out: IC50 (anti-malarial activity)

Row | IC50 (P. falciparum; [2]) [µg/mL] | IC50 (P. falciparum; [3]) [nM] | Structure (SMILES) | Average Cytotoxicity (mammalian cytotoxicity) [ng/mL] | other results
1 | 0.446 | 999 | Cc1ccc(Cn2cc(CCC(=O)NCCCN3CC(C)CC(C)C3)c3ccccc32)cc1 (stereo not shown) [GR-M007] | 10420 | –
2 | 1.63 | 3520 | Cc1ccc2c(c1)N(CCCC(=O)NCCCN1CCC(Cc3ccccc3)CC1)C(=O)CO2 [GR-M006] | – | –
3 | – | > 20000 | O=CN1CCN(CC(O)COc2ccc(OCC(O)CN3CCN(C=O)CC3)cc2)CC1 (stereo not shown) [GR-M003] | – | –
4 | 4.78 | 10300 | Cc1ccc(C)c(NCC(O)COc2ccc(OCC(O)CNc3cc(C)ccc3C)cc2)c1 (stereo not shown) [GR-M004] | – | –
5 | 9.74 | 18900 | Cc1cccc(C)c1OCCOCC(O)CN1CCN(Cc2ccc3c(c2)OCO3)CC1 (stereo not shown) [GR-M005] | – | –
6 | – | > 20000 | CC(C)(C)c1cnnn1-c1ccc(C=Cc2ccc(C=Cc3ccc4ccccc4n3)cc2)cc1 [GR-M001] | – | Solubility in DMSO [1]: *
7 | 5.38 | 12500 | CC(NC(=O)CN1CCCN(CC(=O)NC(C)(C)C)CC1)c1ccc2c(c1)CCCC2 (stereo not shown) [GR-M002] | – | –
8 | 0.172 | 332 | CC1=C(CCC(C)N(C)Cc2ccc(OCCCN3CCCC3)cc2)C(C)(C)CCC1 (stereo not shown) [GR-M010] | 4860 | –
9 | 0.086 | 185 | CC(C)(C)CC(C)(C)Cc1ccc(OCCOCC[N+](C)(C)Cc2ccccc2)cc1 [GR-M011] | 3250 | –
10 | – | – | CCN(CC)CCCC(C)Nc1ccnc2cc(Cl)ccc12 (stereo not shown) [chloroquine, reference compound] | – | IC50 (P. falciparum; read-out: Average Anti-malarial Activity (concentration corresponding to 50% inhibition)): 0.0042 µg/mL; IC50 (P. falciparum; read-out: IC50 (anti-malarial activity)): 13 nM
11 | – | – | COc1cc([C@@H]2c3cc4c(cc3[C@H](O)[C@H]3COC(=O)[C@H]23)OCO4)cc(OC)c1OC [Podophyllotoxin, reference compound] | 9.5 | –

Row | Structure (SMILES) | IC50 (P. falciparum; [2]) [µg/mL] | IC50 (P. falciparum; [3]) [nM] | Average Cytotoxicity (mammalian cytotoxicity) [ng/mL] | other results
12 | Cc1cccc[n+]1CCCCCCCCCC[n+]1ccccc1C [GR-M009] | 0.013 | 27 | – | –
